The record followed here is PubChem BioAssay AID1918931 (Molecular Pharmacology Branch, DTP, NCI, 2023).

Where “and” joins values, the source holds several entries; their conditions need not be identical. Identical values can stand only once.

The test system of the test is 138582-337-R-J1-PDC complex spheroid viability. Nature of the test: Anticancer human tumor 138582-337-R-J1-PDC patient-derived Merkel cell tumor cell line growth inhibition. The following applies: for viability, T/C: stronger effect = lower value. The method, boiled down: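 Multicellular complex spheroids of tumor cells with human endothelial cells (HUVEC) and mesenchymal stem cells; the LSD1 inhibitor iadademstat was combined with standard-of-care or investigational agents. Top concentration at or near clinical Cmax, half-log dilutions; final DMSO ≤0.25%.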

In general, viability, T/C refers to the ratio of treated to control. Usually IC50 stands for the concentration at which inhibition is half-maximal.
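Note: spheroids exposed to agents for 7 days.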
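Throughout, for viability, T/C: 100% = DMSO vehicle control viability.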

As to `CC(C)c1c(-c2ccccc2)nc2c(C#N)c[nH]n2c1=O`, the viability, T/C by setting is: (compound 0.0316 µM) 106% and 89.1%; (compound 0.1 µM) 92.4% and 85.5%; (compound 0.316 µM) 92.8% and 89.8%; (compound 1 µM) 97.1% and 71.4%; (compound 3.16 µM) 84.7% and 52.7%; (compound 10 µM) 85.2% and 40.5%. Moreover, the IC50 (curve of compound) is > 10000 nM and 3700 nM.

For `COc1cc(Nc2ncc3c(n2)-c2ccc(Cl)cc2C(c2c(F)cccc2OC)=NC3)ccc1C(=O)O` + NC1CC1c1ccc(-c2cccc(O)c2)cc1, the IC50 reads like this: (curve of first compound, second compound 0.1 µM) 355 nM; (curve of first compound, second compound 0.316 µM) 210 nM; (curve of first compound, second compound 1 µM) 222 nM; (curve of first compound, second compound 3.16 µM) 183 nM; (curve of first compound, second compound 10 µM) 463 nM. Also, the viability, T/C is, setting by setting: (second compound 0.1 µM, first compound 0.00316 µM) 66.5%; (second compound 0.1 µM, first compound 0.01 µM) 76.5%; (second compound 0.1 µM, first compound 0.0316 µM) 61.4%; (second compound 0.1 µM, first compound 0.1 µM) 66.4%; (second compound 0.1 µM, first compound 0.316 µM) 51.9%; (second compound 0.1 µM, first compound 1 µM) 28.4%. The viability, T/C is 64.7% (second compound 0.316 µM, first compound 0.00316 µM); 69.4% (second compound 0.316 µM, first compound 0.01 µM); 60.1% (second compound 0.316 µM, first compound 0.0316 µM); 64.3% (second compound 0.316 µM, first compound 0.1 µM); 42.1% (second compound 0.316 µM, first compound 0.316 µM); 30.6% (second compound 0.316 µM, first compound 1 µM). The viability, T/C reads like this: (second compound 1 µM, first compound 0.00316 µM) 70.8%; (second compound 1 µM, first compound 0.01 µM) 79.4%; (second compound 1 µM, first compound 0.0316 µM) 64.9%; (second compound 1 µM, first compound 0.1 µM) 59%; (second compound 1 µM, first compound 0.316 µM) 46.7%; (second compound 1 µM, first compound 1 µM) 33.2%. Further, the viability, T/C is, setting by setting: (second compound 3.16 µM, first compound 0.00316 µM) 70.4%; (second compound 3.16 µM, first compound 0.01 µM) 89.8%; (second compound 3.16 µM, first compound 0.0316 µM) 82.5%; (second compound 3.16 µM, first compound 0.1 µM) 60.7%; (second compound 3.16 µM, first compound 0.316 µM) 41.9%; (second compound 3.16 µM, first compound 1 µM) 38.8%. The viability, T/C is, setting by setting: (second compound 10 µM, first compound 0.00316 µM) 82.6%; (second compound 10 µM, first compound 0.01 µM) 97%; (second compound 10 µM, first compound 0.0316 µM) 80.2%; (second compound 10 µM, first compound 0.1 µM) 80.9%; (second compound 10 µM, first compound 0.316 µM) 57.2%; (second compound 10 µM, first compound 1 µM) 34.8%.

With `CC1COCCN1c1cc(C2(S(C)(=N)=O)CC2)nc(-c2ccnc3[nH]ccc23)n1` (configuration not stated), the viability, T/C is 91.2% and 97.8% (compound 0.0316 µM); 85.4% and 99.9% (compound 0.1 µM); 88.4% and 81.3% (compound 0.316 µM); 83.1% and 59.1% (compound 1 µM); 68.1% and 46.4% (compound 3.16 µM); 45.8% and 38.9% (compound 10 µM). Moreover, where the note is “curve of compound”, the IC50 is 8040 nM and 2070 nM.

`CC1(C)CCC(CN2CCN(c3ccc(C(=O)NS(=O)(=O)c4ccc(NCC5CCOCC5)c([N+](=O)[O-])c4)c(Oc4cnc5[nH]ccc5c4)c3)CC2)=C(c2ccc(Cl)cc2)C1`: the viability, T/C is 95.7% and 61.2% (compound 0.0316 µM); 95.8% and 70.4% (compound 0.1 µM); 89.5% and 69.6% (compound 0.316 µM); 101% and 73.5% (compound 1 µM); 101% and 55.5% (compound 3.16 µM). For the same compound, for the setting “curve of compound”, the IC50 was > 10000 nM and 3560 nM.

Turning to `Nc1ccn(C2OC(CO)C(O)C2(F)F)c(=O)n1` (configuration not stated), the viability, T/C reads like this: (compound 0.000949 µM) 80.2% and 102%; (compound 0.003 µM) 94.3% and 100%; (compound 0.00949 µM) 86.5% and 77.4%; (compound 0.03 µM) 82.4% and 55.1%; (compound 0.0949 µM) 80% and 59.3%; (compound 0.3 µM) 112% and 53.6%. For the same compound, the IC50 (curve of compound) was above 300 nM.
